Reference: ChEMBL document CHEMBL5550189, “Discovery of GS-7682, a Novel 4'-Cyano-Modified C-Nucleoside Prodrug with Broad Activity against Pneumo- and Picornaviruses and Efficacy in RSV-Infected African Green Monkeys” (J Med Chem, 2024)
pEC50, pIC50: −log10 of the molar value.

How the values were obtained:
[1] = Distribution coefficient, log D of compound measured after 30 mins by HPLC/UV analysis; format: physicochemical; conditions: octanol/water
[2] = tested on: Respiratory syncytial virus; experiment: Antiviral activity against RSV A2 infected in human HEp-2 cells incubated for 4 days by Cell Titer Glo assay; format: functional, organism-based; conditions: A2, HEp-2, 96 h
[3] = tested on: Respiratory syncytial virus; experiment: Antiviral activity against RSV A2 infected in Normal human bronchial epithelial cells incubated for 3 days by ONE-Glo luciferase assay; format: functional, organism-based; conditions: A2, Epithelial cell, 72 h
[4] = Cytotoxicity against human Hep-2 cells incubated for 4 to 5 days by Cell Titer Glo assay; format: toxicity, cell-based; conditions: time 4-5 day
[5] = Cytotoxicity against human MT4 cells incubated for 5 days by Cell Titer Glo assay; format: toxicity, cell-based; conditions: time 5 day
[6] = Prodrug conversion in Normal human bronchial epithelial cells assessed as ((2R,3S,4R,5S)-5-(4-aminopyrrolo[2,1-f][1,2,4]triazin-7-yl)-2-cyano-3,4-dihydroxytetrahydrofuran-2-yl)methyl tetrahydrogen triphosphate formation measured per million cells at 10 uM incubated for 2 hrs by LC-MS/MS analysis; format: ADME, cell-based; conditions: epithelial cell
[7] = Inhibition of RSV ribonucleoprotein complex in presence of [alpha-32P]ATP by Phosphor imaging analysis; design: species or system Respiratory syncytial virus
Homo sapiens [8] = species on record: Homo sapiens; experiment: Inhibition of recombinant human DNA Pol-gamma assessed as single-nucleotide incorporation rate at 50 uM measured for 60 mins in presence of dATP by imaging analysis relative to control; design: scale not given: the % may be the effect or the level left
[9] = target: T1, DNA-directed RNA polymerase, mitochondrial (Homo sapiens, UniProt O00411); experiment: Inhibition of recombinant human POLRMT assessed as single-nucleotide incorporation rate at 500 uM measured for 60 mins in presence of ATP by imaging analysis relative to control; design: scale not given: the % may be the effect or the level left
[10] = target: T1, DNA-directed RNA polymerase, mitochondrial; experiment: Inhibition of recombinant human POLRMT by Phosphor imaging analysis
Homo sapiens [11] = species on record: Homo sapiens; experiment: Inhibition of recombinant human DNA Pol-alpha assessed as single-nucleotide incorporation rate at 50 uM measured for 60 mins in presence of dATP by imaging analysis relative to control; design: scale not given: the % may be the effect or the level left
Influenza A virus = experiment: Anti-viral activity against Influenza A (H1N1) infected in MDCK cells by MTS assay; format: functional, organism-based; conditions: H
Human metapneumovirus = experiment: Anti-viral activity against hMPV CAN99-81 (A1 genotype) infected in rhesus monkey LLC-MK2 cells incubated for 3 to 5 days; format: functional, organism-based
enterovirus D68 = experiment: Anti-viral activity against EV-D68 (18952) infected in human RD cells by MTS assay; format: functional, organism-based; conditions: Enterovirus D, 18952, RD
Enterovirus A71 = experiment: Anti-viral activity against EV-71 (H) infected in human RD cells by MTS assay; format: functional, organism-based; conditions: Enterovirus A

T1 sequence (O00411 whole entry): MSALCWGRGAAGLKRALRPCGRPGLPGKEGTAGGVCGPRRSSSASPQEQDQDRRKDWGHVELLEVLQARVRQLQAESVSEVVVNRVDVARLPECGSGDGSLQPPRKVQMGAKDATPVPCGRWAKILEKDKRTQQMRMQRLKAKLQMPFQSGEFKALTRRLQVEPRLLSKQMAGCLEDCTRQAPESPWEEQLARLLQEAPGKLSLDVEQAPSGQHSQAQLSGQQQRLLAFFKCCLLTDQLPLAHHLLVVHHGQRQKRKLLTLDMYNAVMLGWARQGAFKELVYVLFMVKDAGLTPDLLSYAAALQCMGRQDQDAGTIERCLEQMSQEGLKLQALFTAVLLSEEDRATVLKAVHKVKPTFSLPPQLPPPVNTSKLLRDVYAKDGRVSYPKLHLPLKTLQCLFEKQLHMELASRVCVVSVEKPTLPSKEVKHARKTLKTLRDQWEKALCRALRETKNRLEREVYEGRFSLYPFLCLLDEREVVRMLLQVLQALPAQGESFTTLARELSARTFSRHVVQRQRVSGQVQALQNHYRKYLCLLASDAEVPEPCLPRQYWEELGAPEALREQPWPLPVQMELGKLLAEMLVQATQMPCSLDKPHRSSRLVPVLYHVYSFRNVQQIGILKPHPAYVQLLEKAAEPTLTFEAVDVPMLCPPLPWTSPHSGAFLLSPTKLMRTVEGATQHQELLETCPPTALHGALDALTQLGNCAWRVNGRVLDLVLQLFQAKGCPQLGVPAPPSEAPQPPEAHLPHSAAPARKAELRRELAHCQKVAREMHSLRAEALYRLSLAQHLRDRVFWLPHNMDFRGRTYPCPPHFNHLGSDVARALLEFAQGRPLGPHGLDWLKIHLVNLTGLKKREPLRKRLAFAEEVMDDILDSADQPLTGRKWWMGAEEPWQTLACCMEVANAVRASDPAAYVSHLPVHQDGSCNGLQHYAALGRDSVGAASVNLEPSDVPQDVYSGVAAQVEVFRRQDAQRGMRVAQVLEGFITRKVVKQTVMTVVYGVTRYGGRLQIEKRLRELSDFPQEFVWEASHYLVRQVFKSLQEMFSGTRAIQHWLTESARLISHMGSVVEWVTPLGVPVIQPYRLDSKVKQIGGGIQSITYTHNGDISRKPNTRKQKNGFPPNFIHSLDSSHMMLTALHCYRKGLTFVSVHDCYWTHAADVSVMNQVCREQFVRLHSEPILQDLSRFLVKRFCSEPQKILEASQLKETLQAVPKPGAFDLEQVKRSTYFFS

Compound	logD at 0.5 h [1]	pEC50 [2]	pEC50 [3]	CC50 [4] [µM]	CC50 at 120 h [5] [µM]	also measured
COC(=O)C(C)N[P@](=O)(OC[C@@]1(C#N)O[C@@H](c2ccc3c(N)ncnn23)[C@H](OC(C)=O)[C@@H]1OC(C)=O)Oc1ccccc1 (some centres undefined)	2	6.90	7.29	> 42	10.6	–
C=C[C@]1(CO)O[C@@H](c2ccc3c(N)ncnn23)[C@H](O)[C@@H]1O	–	< 4.30	< 4.30	> 50	> 50	–
CC(=O)O[C@H]1[C@H](c2ccc3c(N)ncnn23)O[C@](C#N)(CO[P@@](=O)(N[C@@H](C)C(=O)OC2CCCCC2)Oc2ccccc2)[C@H]1OC(C)=O	2.9	6.69	7.64	> 49	29.8	Drug metabolism [6]: 40 pM
N#C[C@]1(COP(=O)(O)OP(=O)(O)OP(=O)(O)O)O[C@@H](c2ccc3c(N)ncnn23)[C@H](F)[C@@H]1O	–	–	–	–	–	pIC50 [7]: 7.07; Activity (Homo sapiens [8]): 2.3%; Activity [9]: 0.03%; pIC50 [10]: 3.94; Activity (Homo sapiens [11]): 8.7%
C[C@]1(COP(=O)(O)OP(=O)(O)OP(=O)(O)O)O[C@@H](c2ccc3c(N)ncnn23)[C@H](O)[C@@H]1O	–	–	–	–	–	Activity [9]: 3.2%
C[C@]1(CO)O[C@@H](c2ccc3c(N)ncnn23)[C@H](O)[C@@H]1O	–	4.60	< 4.30	> 50	> 50	–
N#C[C@]1(COP(=O)(O)OP(=O)(O)OP(=O)(O)O)O[C@@H](c2ccc3c(N)ncnn23)[C@H](O)[C@@H]1O	–	–	–	–	–	pIC50 [7]: 7.30; Activity (Homo sapiens [8]): 0%; Activity [9]: 0.8%; pIC50 [10]: < 3.70; Activity (Homo sapiens [11]): 0%
C[C@H](N[P@](=O)(OC[C@@]1(C#N)O[C@@H](c2ccc3c(N)ncnn23)[C@H](O)[C@@H]1O)Oc1ccccc1)C(=O)OC1CCCCC1	2.2	6.83	6.85	> 100	> 50	Drug metabolism [6]: 13 pM
CCC(CC)OC(=O)[C@H](C)NP(=O)(OC[C@@]1(C#N)O[C@@H](c2ccc3c(N)ncnn23)[C@H](O)[C@@H]1O)Oc1ccccc1 (some centres undefined)	2.1	7.54	7.27	> 93	40.1	–
CCCOC(=O)[C@H](C)N[P@](=O)(OC[C@@]1(C#N)O[C@@H](c2ccc3c(N)ncnn23)[C@H](OC(=O)CC)[C@@H]1OC(=O)CC)Oc1ccccc1	2.8	7.39	7.25	27.3	7.65	Drug metabolism [6]: 165 pM
N#C[C@]1(CO)O[C@@H](c2ccc3c(N)ncnn23)[C@H](O)[C@@H]1O	–	5.17	5.21	> 50	> 50	–
CCOC(=O)[C@H](C)N[P@](=O)(OC[C@@]1(C#N)O[C@@H](c2ccc3c(N)ncnn23)[C@H](O)[C@@H]1O)Oc1ccccc1	1.1	7.02	6.03	> 100	28.7	–
Nc1ncnn2c([C@@H]3O[C@H](CO)[C@@H](O)[C@H]3O)ccc12	–	–	–	0.037	< 0.01	–
CC(C)OC(=O)[C@H](C)N[P@](=O)(OC[C@@]1(C#N)O[C@@H](c2ccc3c(N)ncnn23)[C@H](O)[C@@H]1O)Oc1ccccc1	1.3	6.41	6.03	> 50	> 57	–
[N-]=[N+]=N[C@]1(COP(=O)(O)OP(=O)(O)OP(=O)(O)O)O[C@@H](c2ccc3c(N)ncnn23)[C@H](O)[C@@H]1O	–	–	–	–	–	pIC50 [7]: 6.92; Activity (Homo sapiens [8]): 0.62%; Activity [9]: 132%; pIC50 [10]: 6.00; Activity (Homo sapiens [11]): 0%
[N-]=[N+]=N[C@]1(CO)O[C@@H](c2ccc3c(N)ncnn23)[C@H](O)[C@@H]1O	–	5.69	5.44	> 50	> 50	–

Compound	logD at 0.5 h [1]	pEC50 [2]	pEC50 [3]	CC50 [4] [µM]	CC50 at 120 h [5] [µM]	also measured
C[C@H](N[P@@](=O)(OC[C@@]1(C#N)O[C@@H](c2ccc3c(N)ncnn23)[C@H](O)[C@@H]1O)Oc1ccccc1)C(=O)OC1CCCCC1	–	5.51	6.20	> 50	> 50	–
CCCOC(=O)[C@H](C)N[P@](=O)(OC[C@@]1(C#N)O[C@@H](c2ccc3c(N)ncnn23)[C@H](OC(=O)C(C)C)[C@@H]1OC(=O)C(C)C)Oc1ccccc1	3.3	7.44	7.34	15.7	4.92	Drug metabolism [6]: 402 pM
NC(=O)c1nc(F)cnc1O [FAVIPIRAVIR]	–	–	–	–	–	pEC50 (Influenza A virus): 5.23
C[C@H](N[P@](=O)(OC[C@@]1(C#N)O[C@@H](c2ccc3c(N)ncnn23)[C@H](O)[C@@H]1O)Oc1ccccc1)C(=O)OC1CCOCC1	1.3	5.83	< 5.37	> 50	> 57	–
CCC(=O)O[C@H]1[C@H](c2ccc3c(N)ncnn23)O[C@](C#N)(CO[P@@](=O)(N[C@@H](C)C(=O)OC2CCCCC2)Oc2ccccc2)[C@H]1OC(=O)CC	3.5	7.22	7.39	33.9	17.1	–
Nc1ncnn2c([C@@H]3O[C@](CCl)(COP(=O)(O)OP(=O)(O)OP(=O)(O)O)[C@@H](O)[C@H]3O)ccc12	–	–	–	–	–	pIC50 [7]: 5.96; Activity [9]: 0.1%
NC(=O)c1ncn([C@@H]2O[C@H](CO)[C@@H](O)[C@H]2O)n1 [RIBAVIRIN]	–	–	–	–	–	pEC50 (Human metapneumovirus): 4.46
CCC(=O)O[C@H]1[C@H](c2ccc3c(N)ncnn23)O[C@](C#N)(CO[P@@](=O)(NC(C)C(=O)OC)Oc2ccccc2)[C@H]1OC(=O)CC (some centres undefined)	2.2	7.04	7.72	30	3.33	Drug metabolism [6]: 384 pM
CCCOC(=O)[C@H](C)N[P@](=O)(OC[C@@]1(C#N)O[C@@H](c2ccc3c(N)ncnn23)[C@H](O)[C@@H]1O)Oc1ccccc1	1.2	7.26	6.77	> 50	10.3	–
N#C[C@]1(CO)O[C@@H](c2ccc3c(N)ncnn23)[C@H](F)[C@@H]1O	–	–	5.64	> 100	> 50	–
COC(=O)[C@H](C)N[P@](=O)(OC[C@@]1(C#N)O[C@@H](c2ccc3c(N)ncnn23)[C@H](O)[C@@H]1O)Oc1ccccc1	1.1	6.91	6.53	> 50	> 38	Drug metabolism [6]: 15 pM
CC(C)C(=O)O[C@H]1[C@H](c2ccc3c(N)ncnn23)O[C@](C#N)(CO[P@@](=O)(N[C@@H](C)C(=O)OC2CCCCC2)Oc2ccccc2)[C@H]1OC(=O)C(C)C	4	7.22	7.77	18.1	8.7	Drug metabolism [6]: 170 pM
CC(C)S(=O)(=O)n1c(N)nc2ccc(/C(=N/O)c3ccccc3)cc21 [ENVIROXIME]	–	–	–	–	–	pEC50 (enterovirus D68): 6.66; pEC50 (Enterovirus A71): 7.70
C=C[C@]1(COP(=O)(O)OP(=O)(O)OP(=O)(O)O)O[C@@H](c2ccc3c(N)ncnn23)[C@H](O)[C@@H]1O	–	–	–	–	–	Activity [9]: 0.96%
Nc1ncnn2c([C@@H]3O[C@@](CO)(CCl)[C@@H](O)[C@H]3O)ccc12	–	< 4.30	< 4.60	> 38	> 50	–
